The results in this text go back to patent publication US20250059205A1, “Heterocyclic Compounds and Methods of Use” (AMGEN INC., priority 2021, published 2025).

The structures appear in SMILES notation.

Experiment [1] deals with His-tagged KRAS G12D protein (Homo sapiens, UniProt P01116, G12D). The experiment in a line: KRAS G12D TR-FRET Assay. The experiment is classed as binding. In general terms: Time-resolved FRET reads energy transfer from a long-lived donor to a nearby acceptor.
The target in experiment [2] is GDP-bound KRAS protein (aa 1-169), containing both G12D and C118A amino acid substitutions (Homo sapiens, UniProt P01116, C118A/G12D). The experiment can be described thus: KRAS G12D Coupled Nucleotide Exchange Assay. Format: biochemical. The note with it: 2 h compound pre-incubation. The method, then:
Following compound pre-incubation, purified SOS protein (aa 564-1049) and GTP (Roche 10106399001) were added to the assay wells and incubated for an additional 30 min. […] The assay plates were then read on a PerkinElmer EnVision Multilabel Reader, using AlphaScreen® technology, and data were analyzed using a 4-parameter logistic model to calculate IC50 values.

Experiment [3] has as its system Phosphorylation of ERK1/2 in A-427 cells. The experiment can be described thus: Phospho-ERK1/2 MSD Assay (A-427 cells). Format: cell-based. The following applies: Homo sapiens, A-427, 2 h, 2 h treatment, read-out: p-ERK (A427 cells) IC50. The method in brief: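 ERK1/2 phosphorylation measured by Meso Scale whole-cell lysate assay after A-427 cells were exposed to a titration of compound for 2 h at 37 °C.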

Experiment [4] deals with Phosphorylation of ERK1/2 in AsPC-1 cells. The experiment in a line: Phospho-ERK1/2 MSD Assay (AsPC-1 cells). The experiment is classed as cell-based. The note with it: Homo sapiens, ASPC1, 2 h, 2 hours treatment, read-out: p-ERK (AsPC-1 cells) IC50. The procedure, abridged: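 Read-out: MSD electrochemiluminescent detection of phosphorylated ERK1/2 in whole-cell lysates, fitted to a 4-parameter logistic curve for IC50. Prior to lysis, AsPC-1 cells (25,000 per well) received a 2 h compound dose-response at 37 °C.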

Chain of GDP-bound KRAS protein (aa 1-169), containing both G12D and C118A amino acid substitutions (P01116 1-169 isoform P01116-2 G12D/C118A): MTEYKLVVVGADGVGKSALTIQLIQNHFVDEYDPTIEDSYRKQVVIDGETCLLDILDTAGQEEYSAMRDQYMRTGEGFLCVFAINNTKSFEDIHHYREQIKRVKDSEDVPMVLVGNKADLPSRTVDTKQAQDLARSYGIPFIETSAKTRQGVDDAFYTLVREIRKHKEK
Chain of His-tagged KRAS G12D protein (P01116 1-188 isoform P01116-2 G12D): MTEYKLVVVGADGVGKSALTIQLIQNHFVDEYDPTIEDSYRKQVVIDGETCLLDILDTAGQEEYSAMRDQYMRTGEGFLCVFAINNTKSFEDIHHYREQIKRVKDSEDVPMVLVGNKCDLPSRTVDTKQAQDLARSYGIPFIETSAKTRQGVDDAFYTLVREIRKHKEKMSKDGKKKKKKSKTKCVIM

On to `Oc1cc(-c2ccc3c(N4C[C@@H]5C[C@H]4CN5)nc(OC[C@@]45CCCN4C[C@H](F)C5)nc3c2F)c2ccccc2c1` [Example 50, 4-(4-((1S,4S)-2,5-diazabicyclo[2.2. 1]heptan-2-yl)-8-fluoro-2-(((2R,7aS)-2-fluorotetrahydro-1H-pyrrolizin-7a(5H)-yl)methoxy)quinazolin-7-yl)naphthalen-2-ol], for which the results for the IC50 in experiment [1], in experiment [3] and in experiment [4] were 11 nM, 1010 nM and 4470 nM, respectively. Moreover, the “Avg 2 h Coupled Exchange IC50” value in experiment [2] amounted to 7 nM.
Take `CCc1c(F)ccc2cc(O)cc(-c3c(F)cc4c(N5C[C@@H]6CC[C@H]5CN6)nc(OC[C@@H]5C[C@@H](F)CN5C)nc4c3F)c12` [Example 94, 4-(4-((1S,4S)-2,5-diazabicyclo[2.2. 2]octan-2-yl)-6,8-difluoro-2-(((2S,4R)-4-fluoro-1-methylpyrrolidin-2-yl)methoxy)quinazolin-7-yl)-5-ethyl-6-fluoronaphthalen-2-ol]: the figures for the IC50 in experiment [1], in experiment [3] and in experiment [4] were 5 nM, 110 nM and 152 nM, respectively. The “Avg 2 h Coupled Exchange IC50” value in experiment [2] is 4 nM.
On the same counts, the results for `CCc1cccc2cccc(-c3c(Cl)cc4c(N5C[C@H]6CC[C@@H](C5)N6)nc(OC[C@@]56CCCN5C[C@H](F)C6)nc4c3F)c12` [Example 71, 4-((1R,5S)-3,8-diazabicyclo[3.2. 1]octan-3-yl)-6-chloro-7-(8-ethylnaphthalen-1-yl)-8-fluoro-2-(((2R,7aS)-2-fluorotetrahydro-1H-pyrrolizin-7a(5H)-yl)methoxy) quinazoline] are 38 nM, 4790 nM, 3360 nM and 50 nM.
On the same counts, the results for `CCc1cccc2cc(O)cc(-c3c(Cl)cc4c(N5C[C@@H]6CC[C@H]5CN6)nc(OC[C@@]56CCCN5C[C@H](F)C6)nc4c3F)c12` [Example 130, 4-(4-((1S,4S)-2,5-diazabicyclo[2.2.2]octan-2-yl)-6-chloro-8-fluoro-2-(((2R,7aS)-2-fluorotetrahydro-1H-pyrrolizin-7a(5H)-yl)methoxy)quinazolin-7-yl)-5-ethylnaphthalen-2-ol] are 3 nM, 52 nM, 102 nM and 5 nM.
The matching figures for `Oc1ccc(-c2c(F)cc3c(N4C[C@H]5CC[C@@H](C4)N5)nc(OC[C@@]45CCCN4C[C@H](F)C5)nc3c2F)c2ccccc12` [Example 122, 4-(4-((1R,5S)-3,8-diazabicyclo[3.2.1]octan-3-yl)-6,8-difluoro-2-(((2R,7aS)-2-fluorotetrahydro-1H-pyrrolizin-7a(5H)-yl)methoxy)quinazolin-7-yl)naphthalen-1-ol]: 5 nM, 167 nM, 282 nM and 5 nM.
For the compound `Nc1ccc(C(F)(F)F)c(-c2ccc3c(N4C[C@H]5CC[C@@H](C4)N5)nc(OC[C@@]45CCCN4C[C@H](F)C5)nc3c2F)n1` [Example 223, 6-(4-((1R,5S)-3,8-diazabicyclo[3.2.1]octan-3-yl)-8-fluoro-2-(((2R,7aS)-2-fluorotetrahydro-1H-pyrrolizin-7a(5H)-yl)methoxy)quinazolin-7-yl)-5-(trifluoromethyl) pyridin-2-amine], the IC50 (in general, the concentration at which inhibition is half-maximal) in experiment [1] amounted to 44 nM; in experiment [3] it was 894 nM; in experiment [4], 3030 nM. Further, the “Avg 2 h Coupled Exchange IC50” value in experiment [2] was found to be 15 nM.
On the same counts, the results for `Oc1cc(-c2cc3nc(OC[C@@]45CCCN4C[C@H](F)C5)nc(N4C[C@H]5CC[C@@H](C4)N5)c3cc2F)c2ccccc2c1` [Example 42, 4-(4-((1R,5S)-3,8-diazabicyclo[3.2. 1]octan-3-yl)-6-fluoro-2-(((2R,7aS)-2-fluorotetrahydro-1H-pyrrolizin-7a(5H)-yl)methoxy)quinazolin-7-yl)naphthalen-2-ol] are 3 nM, 77 nM, 223 nM and 3 nM.
On the same counts, the results for `Nc1cc(F)c(F)c(-c2c(F)cc3c(N4CC5CCC(C4)N5)nc(OC[C@@]45CCCN4C[C@H](F)C5)nc3c2F)c1` [Example 118] are 140 nM, 6780 nM, 4950 nM and 39 nM.
The matching figures for `Nc1ccc(C2CC2)c(-c2c(F)cc3c(N4C[C@H]5CC[C@@H](C4)N5)nc(OC[C@@]45CCCN4C[C@H](F)C5)nc3c2F)c1` [Example 114, 3-(4-((1R,5S)-3,8-diazabicyclo[3.2.1]octan-3-yl)-6,8-difluoro-2-(((2R,7aS)-2-fluorotetrahydro-1H-pyrrolizin-7a(5H)-yl)methoxy)quinazolin-7-yl)-4-cyclopropylaniline]: 16 nM, 985 nM, 1420 nM and 4 nM.
For `CCc1c(F)ccc2cc(O)cc(-c3c(F)cc4c(N5C[C@H]6CC[C@@H](C5)N6)nc(OCC(C)(O)CC)nc4c3F)c12` (stereo partly drawn) [Example 214, 4-(4-((1R,5S)-3,8-diazabicyclo[3.2.1]octan-3-yl)-6,8-difluoro-2-(2-hydroxy-2-methylbutoxy)quinazolin-7-yl)-5-ethyl-6-fluoronaphthalen-2-ol], the values for the half-inhibitory concentration (IC50) in experiment [1], in experiment [3] and in experiment [4] were 13 nM, 1700 nM and 1210 nM, respectively. For the same compound, in experiment [2], the “Avg 2 h Coupled Exchange IC50” value was found to be 5 nM.
On the same counts, the results for `Cc1c(-c2cc(O)cc3ccc(F)c(F)c23)ccc2c(N3C[C@@H]4CC[C@H]3CN4)nc(OC[C@@]34CCCN3C[C@H](F)C4)nc12` [Example 166, 4-(4-((1S,4S)-2,5-diazabicyclo[2.2.2]octan-2-yl)-2-(((2R,7aS)-2-fluorotetrahydro-1H-pyrrolizin-7a(5H)-yl)methoxy)-8-methylquinazolin-7-yl)-5,6-difluoronaphthalen-2-ol] are 94 nM, 4200 nM, 1530 nM and 82 nM.
Consider `CCc1c(F)ccc2cc(O)cc(-c3c(F)cc4c(N5C[C@H]6CC[C@@H](C5)N6)nc(OC[C@@H]5CC(F)(F)CN5)nc4c3F)c12` [Example 217, 4-(4-((1R,5S)-3,8-diazabicyclo[3.2.1]octan-3-yl)-2-(((S)-4,4-difluoropyrrolidin-2-yl)methoxy)-6,8-difluoroquinazolin-7-yl)-5-ethyl-6-fluoronaphthalen-2-ol], for which the IC50 in experiment [1] was determined as 4 nM; in experiment [3], 218 nM; in experiment [4], 414 nM. For the same compound, the “Avg 2 h Coupled Exchange IC50” value in experiment [2] is 4 nM.
Turning to `Oc1cc(Cl)c(C2CC2)c(-c2c(F)cc3c(N4CC5CCC4CN5)nc(OC[C@@]45CCCN4C[C@H](F)C5)nc3c2F)c1` (stereo in doubt) [Example 143, 3-(4-((1R,4R)-2,5-diazabicyclo[2.2.2]octan-2-yl)-6,8-difluoro-2-(((2R,7aS)-2-fluorotetrahydro-1H-pyrrolizin-7a(5H)-yl)methoxy)quinazolin-7-yl)-5-chloro-4-cyclopropylphenol], the IC50 is 3 nM in experiment [1], 13 nM in experiment [3] and 46 nM in experiment [4]. In addition, in experiment [2], the “Avg 2 h Coupled Exchange IC50” value was 3 nM.
